Like-named read-outs stand apart in the source and are kept apart here. One block for each molecule: values may come before it.
Columns and labels:
[1] = test system: MCF-7 human breast cancer cell line; assay: 50% inhibitory concentration of antitumor agents, living cell count with trypan blue; format: cell-based; conditions: MCF7, 48 h, read-out: 50% inhibitory concentration of antitumor agents against MCF-7
Method: The cell line was prepared to 1×10^5 cells/ml and then cultured on a 6-well plate under conditions of 37° C. and 5% CO2 for one day. Then, the cell was treated with each antitumor agent at final concentrations of 0.001 μM, 0.01 μM, 0.1 μM, 1.0 μM, and 10 μM, followed by 2-days culture under conditions of 37° C. and 5% CO2. After removal of the culture medium, the cell was washed twice with PBS(−), to which 0.25% Trypsin-EDTA was then added in order to detach the cell from the plate. The thus detached cell was suspended with PBS(−) to a volume of 100 to which 10 μl of 0.4% trypan blue stock solution was then added, and the mixture was measured for counts of living cells using a hemocytometer. The rate of living cells in case that the cell was treated with each antitumor agent (i.e., a chemotherapeutic) was calculated, wherein the number of living cells in case that the cell was not treated with each antitumor agent was designated at 100%. 50% inhibitory concentration was roughly estimated based on the obtained values, and each antitumor agent was prepared to have a concentration around the determined 50% inhibitory concentration, and thereafter procedures similar to the above were further performed in order to calculate a more specific 50% inhibitory concentration.
MCF-7 cell line was prepared to 1×10^5 cells/mL, and then cultured on a 6-well plate under conditions of 37° C. and 5% CO2 for one day. […] After removal of the culture medium, the cell was washed with PBS(−) twice, to which 0.25% Trypsin-EDTA was added in order to detach the cell from the plate. The detached cell was suspended in PBS(−) to a volume of 100 μl, to which 10 μl of 0.4% trypan blue stock solution was further added. The mixture was measured for counts of living cells using a hemocytometer. […] The IC50 values of respective antitumor agents in each type of cancer cells were calculated by using the same procedures.

[2] = test system: human breast cancer cell line MDA-MB-157; assay: ADCC activity, chromium-51 release; format: cell-based; conditions: 1 μg antibody, mouse lymphocytes 2×10^5 cells, 10^3 target cells, 4 hours
Method: The above-selected anti-CAPRIN-1 monoclonal antibodies #1 to #11 were evaluated for their cytotoxic activities against cancer cells (ADCC activity). Hybridomas producing the monoclonal antibodies #1 to #11 were each cultured using hybridoma SFM medium (Invitrogen). The thus obtained supernatant was purified using Hitrap ProteinA Sepharose FF (GE HealthCare), replaced with PBS(−), and then filtered through 0.22 μm filter (Millipore). The obtained filtrates were used as antibodies for assay. The human breast cancer cell line MDA-MB-157 (10^6 cells) was collected in a 50-ml centrifuge tube, to which 100 μCi chromium(Cr)-51 was then added, and incubated at 37° C. for 2 hours. Subsequently, the cells were washed 3 times with RPMI1640 medium containing 10% FBS, and then dispensed into each well of a 96-well V-bottom plate at 10^3 cells per well. The thus obtained cells are used as target cell. The above purified antibodies (1 μg each) were added to the cells. Separately, mouse lymphocytes separated from the mouse spleen were further added (2×10^5 cells) and then cultured under conditions of 37° C. and 5% CO2 for 4 hours. After culture, the amount of chromium(Cr)-51 released from cytotoxically impaired tumor cells in a culture supernatant was measured, so that the ADCC activity of each anti-CAPRIN-1 antibody against cancer cells was calculated. […] On the other hand, similar procedures were performed using the monoclonal antibodies (which were prepared in Example 2) reactive with the CAPRIN-1 protein itself, but not reactive with the surface of cancer cells, no cytotoxic activity was observed (see FIG. 1). […] Similarly, the anti-CAPRIN-1 antibodies were examined for ADCC activity against other human cancer cell lines including glioma cell lines (T98G and U373), lung cancer cell lines (A549 and QG56), renal cancer cell lines (Caki-1 and ACHN), a uterine cervix cancer cell line (SW756), a bladder cancer cell line (T24), an esophageal cancer cell line (KYSE180), gastric cancer cell lines (MNK28 and MNK45), a colorectal cancer cell line (SW480), a leukemia cell line (AML5), and a lymphoma cell line (Ramos).

[3] = test system: MCF-7 human breast cancer cell line; assay: In vivo combination therapy in tumor-bearing nude mice transplanted with MCF-7; conditions: experimental section 1 (anti-CAPRIN-1 antibody = #2, 5 mg/kg i.p.), day 26, mouse PBMC given to all groups
Method: IgG2b (R&D systems, catalog No. MAB11291)) were administered in combination, a group to which an antitumor agent and anti-CAPRIN-1 monoclonal antibody were administered in combination, and a group to which control (PBS(−) was administered. In addition, mouse PBMC was administered to all the administration groups. […] PBMC separated from Balb/c mouse spleen was intravenously administered to each mouse at 1×10^7 cells/0.2 mL (RPMI1640) on days 0, 8, and 15 after the start of the experiment. […] PBMC separated from Balb/c mouse spleen was intravenously administered to each mouse at 1×10^7 cells/0.2 mL (RPMI1640) on days 0, 8, and 15 after the start of the experiment. Paclitaxel was intraperitoneally administered to each of 5 tumor-bearing mice at 15 mg/kg/shot on days 0 and 3 after the start of the experiment. PBMC separated from Balb/c mouse spleen was intravenously administered to each mouse at 1×10^7 cells/0.2 mL (RPMI1640) on days 0, 8, and 15 after the start of the experiment. Docetaxel was intraperitoneally administered to each of 5 tumor-bearing mice at 10 mg/kg/shot on days 0 and 3 after the start of the experiment. PBMC separated from Balb/c mouse spleen was intravenously administered to each mouse at 1×10^7 cells/0.2 mL (RPMI1640) on days 0, 8, and 15 after the start of the experiment. […]

[4] = MCF-7, 2-days culture with agent, living cells counted with trypan blue

Molecule: O=P1(N(CCCl)CCCl)NCCCO1 (centres unmarked) [Cyclophosphamide, cyclophosphamide]
IC50 [1]: 30 nM

IC50 [1, 4]: 0.1 nM
Molecule: CC(=O)O[C@@]12CO[C@@H]1C[C@H](O)[C@@]1(C)C(=O)[C@H](O)C3=C(C)[C@@H](OC(=O)[C@H](O)[C@@H](NC(=O)OC(C)(C)C)c4ccccc4)C[C@@](O)([C@@H](OC(=O)c4ccccc4)[C@H]21)C3(C)C [Docetaxel, docetaxel]

IC50 [1, 4]: 10 nM
Molecule: CC(=O)O[C@H]1C(=O)[C@@]2(C)[C@H]([C@H](OC(=O)c3ccccc3)[C@]3(O)C[C@H](OC(=O)[C@H](O)[C@@H](NC(=O)c4ccccc4)c4ccccc4)C(C)=C1C3(C)C)[C@]1(OC(C)=O)CO[C@@H]1C[C@@H]2O [Paclitaxel, paclitaxel]

IC50 [1, 4]: 20 nM
Molecule: CCC1=C[C@@H]2CN(C1)Cc1c([nH]c3ccccc13)[C@@](C(=O)OC)(c1cc3c(cc1OC)N(C)[C@H]1[C@@](O)(C(=O)OC)[C@H](OC(C)=O)[C@]4(CC)C=CCN5CC[C@]31[C@@H]54)C2 [Vinorelbine, vinorelbine]

B1: monoclonal antibody #6: mouse anti-CAPRIN-1 monoclonal antibody; heavy chain variable region SEQ ID NO: 73, light chain variable region SEQ ID NO: 77 (antibody, listed as Mus musculus, V domains shown)
VH: DILQASGYSFTGYTMNWVKQSHGKNLEWIGLINPYNGGTSYNQKFKGKATLTVDKSSSTAYMELLSLTSEDSAVYYCARWGVWSAMDYWGQGTTVTVSSK
VL: DRVSITCKASQNVRTAVAWYQQKPRQSPKALIYLASNRDTGLPDRFPGRGSGTDFTLNITNVQSEDLEDYFCLQHCNYPNEFRGCTKVPI
ADCC activity (cytotoxic activity) against MDA-MB-157 [2]: 30.2%

B2: monoclonal antibody #1: mouse anti-CAPRIN-1 monoclonal antibody; heavy chain variable region SEQ ID NO: 43, light chain variable region SEQ ID NO: 47 (antibody, listed as Mus musculus, V domains shown)
VH: MEWSGVFIFLLSGTAGVLSEVQLHQFGAELVKPGASVKISCKASGYTFTDYNMDWVKQSHGKSLEWIGDINPNYDSTSYNQKFKGKATLTVDKSSSTAYMELRSLTSEDTAVYYCARSRSYDYEGFAYWGQGTLVTVSAAKTTPPSVY
VL: MSVLTQVLGLLLLWLTGARCDIQMTQSPASLSASVGETVTITCRASGNIHNYLAWYQQKQGKSPQLLVYNAKTLADGVPSRFSGSGSGTQYSLKINSLQPEDFGSYYCQHFWSTLTFGAGTKLELKRADAAPTVSNPYD
ADCC activity (cytotoxic activity) against MDA-MB-157 [2]: 22.1%

B3: monoclonal antibody #2: mouse anti-CAPRIN-1 monoclonal antibody; heavy chain variable region SEQ ID NO: 43, light chain variable region SEQ ID NO: 53 (antibody, listed as Mus musculus, V domains shown)
VH: B2 VH
VL: AVLRCSRGLLVIWISDIQLTQSPSSLAVTAGEKVTMSCKSSQSLLWSVNQKNYLSWYQQKQRQPPKLLIYGASIRESWVPDRFTGSGSGTDFTLTISNVHAEDLAVYYCQHNHGSFLPSRSEQVPSWRSNNR
ADCC activity (cytotoxic activity) against MDA-MB-157 [2]: 29.1%
tumor volume relative to PBS(−) control group designated at 100% [3]: about 56%

Reference: US9180187B2, “Medicament for treating and/or preventing cancer” (TORAY INDUSTRIES, INC., priority 2010, dated 2015)
